Results on five compounds are retold here after ChEMBL document CHEMBL1130164 (J Med Chem, 1997).

pIC50: −log10 of the molar value.

In experiment [1] the target is T1, Protein kinase C beta type (Homo sapiens, UniProt P05771). Kind of experiment: Inhibitory concentration against recombinant human Protein kinase C beta 1 isozyme.
Experiment [2] addresses Protein kinase C delta type (Homo sapiens, UniProt Q05655). Kind of experiment: Inhibitory concentration against recombinant human Protein kinase C delta isozyme.
The target of experiment [3] is Protein kinase C gamma type (Homo sapiens, UniProt P05129). Kind of experiment: Inhibitory concentration against recombinant human Protein kinase C gamma isozyme.
For experiment [4], the target named is T1, Protein kinase C beta type. The experiment is described as follows: Inhibitory concentration against recombinant human Protein kinase C beta 2 isozyme.
For experiment [5], the target named is Protein kinase C alpha type (Homo sapiens, UniProt P17252). The experiment is described as follows: Inhibitory concentration against recombinant human Protein kinase C alpha isozyme.
Experiment [6] has as its target T2, Protein kinase C epsilon type (Homo sapiens, UniProt Q02156).
T2 sequence (Q02156 whole entry): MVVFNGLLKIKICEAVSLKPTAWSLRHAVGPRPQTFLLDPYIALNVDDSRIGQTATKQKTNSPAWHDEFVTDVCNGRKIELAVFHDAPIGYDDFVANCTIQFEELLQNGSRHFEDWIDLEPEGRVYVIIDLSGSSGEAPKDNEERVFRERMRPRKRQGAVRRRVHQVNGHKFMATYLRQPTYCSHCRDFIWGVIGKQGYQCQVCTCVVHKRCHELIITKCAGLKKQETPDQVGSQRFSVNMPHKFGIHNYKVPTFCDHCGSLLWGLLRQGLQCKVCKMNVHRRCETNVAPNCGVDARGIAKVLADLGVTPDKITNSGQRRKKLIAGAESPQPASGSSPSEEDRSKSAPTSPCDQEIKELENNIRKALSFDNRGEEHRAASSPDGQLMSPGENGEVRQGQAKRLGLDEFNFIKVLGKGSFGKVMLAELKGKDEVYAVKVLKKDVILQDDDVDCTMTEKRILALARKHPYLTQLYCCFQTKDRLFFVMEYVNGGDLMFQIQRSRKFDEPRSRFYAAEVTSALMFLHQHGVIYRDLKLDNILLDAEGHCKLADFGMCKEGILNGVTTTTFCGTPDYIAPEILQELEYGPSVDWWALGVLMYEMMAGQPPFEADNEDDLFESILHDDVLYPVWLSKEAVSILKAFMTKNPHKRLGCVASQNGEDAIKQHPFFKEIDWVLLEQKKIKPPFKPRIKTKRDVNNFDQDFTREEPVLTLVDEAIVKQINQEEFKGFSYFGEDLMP
Kind of experiment: Inhibitory concentration against recombinant human Protein kinase C epsilon isozyme.

In experiment [7] the target is Protein kinase C eta type (Homo sapiens, UniProt P24723). Kind of experiment: Inhibitory concentration against recombinant human Protein kinase C eta isozyme.
Protein kinase C eta type, sequence (P24723 whole entry): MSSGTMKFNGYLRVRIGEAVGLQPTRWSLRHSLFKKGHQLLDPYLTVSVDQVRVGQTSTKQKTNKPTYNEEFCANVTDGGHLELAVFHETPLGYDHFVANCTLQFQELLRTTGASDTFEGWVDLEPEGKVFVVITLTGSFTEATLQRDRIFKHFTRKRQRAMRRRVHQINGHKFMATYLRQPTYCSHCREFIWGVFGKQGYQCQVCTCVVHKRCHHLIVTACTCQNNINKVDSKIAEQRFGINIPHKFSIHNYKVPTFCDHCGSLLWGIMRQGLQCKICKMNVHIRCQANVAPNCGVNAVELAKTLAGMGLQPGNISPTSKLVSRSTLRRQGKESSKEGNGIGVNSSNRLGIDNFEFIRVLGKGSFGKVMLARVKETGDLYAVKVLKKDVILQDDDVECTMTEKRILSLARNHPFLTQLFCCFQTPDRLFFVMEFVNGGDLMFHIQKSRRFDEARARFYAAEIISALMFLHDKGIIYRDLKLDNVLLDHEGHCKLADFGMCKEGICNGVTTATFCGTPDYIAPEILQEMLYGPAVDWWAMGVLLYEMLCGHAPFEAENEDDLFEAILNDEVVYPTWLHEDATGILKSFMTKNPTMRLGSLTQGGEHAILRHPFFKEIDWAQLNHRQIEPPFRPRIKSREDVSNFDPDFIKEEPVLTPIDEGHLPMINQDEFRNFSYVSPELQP
The target of experiment [8] is cAMP-dependent protein kinase catalytic subunit alpha (Homo sapiens, UniProt P17612). The experiment is described as follows: Inhibitory concentration against recombinant human cAMP-dependent Protein kinase A.
Experiment [9] has as its target T3, Protein kinase C zeta type (Homo sapiens, UniProt Q05513).
T3 sequence (Q05513 whole entry): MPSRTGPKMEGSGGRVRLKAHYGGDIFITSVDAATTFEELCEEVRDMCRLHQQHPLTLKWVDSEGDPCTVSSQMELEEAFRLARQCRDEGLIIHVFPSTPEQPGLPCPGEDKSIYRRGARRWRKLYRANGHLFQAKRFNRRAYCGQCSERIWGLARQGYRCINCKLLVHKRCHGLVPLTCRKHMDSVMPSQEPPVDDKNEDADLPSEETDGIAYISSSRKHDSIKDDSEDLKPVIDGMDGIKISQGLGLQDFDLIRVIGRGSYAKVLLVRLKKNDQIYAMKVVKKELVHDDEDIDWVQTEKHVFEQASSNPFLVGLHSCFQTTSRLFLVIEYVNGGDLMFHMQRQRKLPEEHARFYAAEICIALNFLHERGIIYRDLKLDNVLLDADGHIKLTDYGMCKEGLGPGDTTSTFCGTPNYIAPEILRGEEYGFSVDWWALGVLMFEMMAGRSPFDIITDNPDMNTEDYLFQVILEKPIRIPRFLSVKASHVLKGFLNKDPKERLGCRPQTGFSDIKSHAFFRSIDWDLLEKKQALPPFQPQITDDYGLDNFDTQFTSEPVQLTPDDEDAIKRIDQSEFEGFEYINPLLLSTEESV
Kind of experiment: Inhibitory concentration against recombinant human Protein kinase C zeta isozyme.

T1 sequence (P05771 whole entry): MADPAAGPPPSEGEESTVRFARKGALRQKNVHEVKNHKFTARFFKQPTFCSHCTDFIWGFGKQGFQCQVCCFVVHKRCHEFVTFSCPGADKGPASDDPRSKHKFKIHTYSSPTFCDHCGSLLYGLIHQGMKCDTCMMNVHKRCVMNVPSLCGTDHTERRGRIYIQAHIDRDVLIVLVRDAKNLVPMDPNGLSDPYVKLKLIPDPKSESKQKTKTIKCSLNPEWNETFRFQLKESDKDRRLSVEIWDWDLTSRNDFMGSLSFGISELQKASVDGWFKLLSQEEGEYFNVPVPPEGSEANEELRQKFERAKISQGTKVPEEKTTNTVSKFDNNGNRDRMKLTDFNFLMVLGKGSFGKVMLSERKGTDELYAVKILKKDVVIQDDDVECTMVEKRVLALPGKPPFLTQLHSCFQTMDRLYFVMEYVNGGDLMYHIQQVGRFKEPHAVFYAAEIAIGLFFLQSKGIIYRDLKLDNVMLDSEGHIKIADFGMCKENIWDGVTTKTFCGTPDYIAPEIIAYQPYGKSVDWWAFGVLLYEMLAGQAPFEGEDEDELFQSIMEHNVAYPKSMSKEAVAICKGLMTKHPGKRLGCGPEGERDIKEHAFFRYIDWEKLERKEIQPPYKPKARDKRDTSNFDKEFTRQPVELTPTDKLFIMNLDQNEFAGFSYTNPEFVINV
Protein kinase C delta type, sequence (Q05655 whole entry): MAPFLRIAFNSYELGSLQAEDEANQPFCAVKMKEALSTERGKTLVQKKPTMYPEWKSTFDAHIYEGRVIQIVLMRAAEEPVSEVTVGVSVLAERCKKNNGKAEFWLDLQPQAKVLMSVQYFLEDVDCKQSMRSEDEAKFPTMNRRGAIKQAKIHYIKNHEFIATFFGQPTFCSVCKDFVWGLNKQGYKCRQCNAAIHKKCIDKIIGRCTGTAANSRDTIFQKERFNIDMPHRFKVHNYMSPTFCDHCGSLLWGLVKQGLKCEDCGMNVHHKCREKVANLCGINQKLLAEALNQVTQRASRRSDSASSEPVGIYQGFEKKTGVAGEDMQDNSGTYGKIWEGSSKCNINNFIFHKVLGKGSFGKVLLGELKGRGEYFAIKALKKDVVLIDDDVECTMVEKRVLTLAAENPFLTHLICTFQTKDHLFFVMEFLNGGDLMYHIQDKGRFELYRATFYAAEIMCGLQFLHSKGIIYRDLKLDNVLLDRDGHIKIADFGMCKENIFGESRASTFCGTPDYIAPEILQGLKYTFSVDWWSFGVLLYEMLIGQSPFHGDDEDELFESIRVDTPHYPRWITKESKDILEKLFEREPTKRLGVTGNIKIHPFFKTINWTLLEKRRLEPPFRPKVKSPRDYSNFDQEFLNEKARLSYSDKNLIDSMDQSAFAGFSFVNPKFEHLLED

As to `O=C(N[C@@H]1CS(=O)(=O)CCC[C@H]1OC(=O)c1cc(O)c(C(=O)c2c(O)cccc2C(=O)O)c(O)c1)c1ccc(O)cc1`, the pIC50 in experiment [1] is 5.28; in experiment [2], 5.40; in experiment [3], 5.37; in experiment [4] it was 5.44; in experiment [5], 5.02; in [6] it was 4.35. In addition, the pIC50 in experiment [7] was 6.10; in experiment [8] it was 4.42; in experiment [9], less than 3.82.

On to `CS(=O)(=O)N1C[C@@H](NC(=O)c2ccc(O)cc2)[C@H](OC(=O)c2cc(O)c(C(=O)c3c(O)cccc3C(=O)O)c(O)c2)C1`, for which the pIC50 in experiment [1] is 6.48; in experiment [2], 7.46; in experiment [3], 6.40; in [4], 6.46; in experiment [5], 6.04; in [6], 5.89. In addition, the pIC50 was 7.21 in experiment [7], 5.35 in [8] and less than 3.82 in [9].

Regarding `NC[C@@H]1C[C@@H](NC(=O)c2ccc(O)cc2)[C@H](OC(=O)c2cc(O)c(C(=O)c3c(O)cccc3C(=O)O)c(O)c2)C1`, the pIC50 in experiment [1] is 8.30; in experiment [2] it was 7.70; in [3] it was 8.00; in [4], 8.30; in [5], 7.70; in [6], 7.52. In addition, the figures for the pIC50 in experiment [7], in experiment [8] and in [9] were 8.52, 7.05 and 5.51, respectively.

On to `CNC(=O)N1C[C@@H](NC(=O)c2ccc(O)cc2)[C@H](OC(=O)c2cc(O)c(C(=O)c3c(O)cccc3C(=O)O)c(O)c2)C1`, for which the pIC50 in experiment [1] was 6.17; in experiment [2], 7.40; in [3], 6.39; in experiment [4], 5.74; in experiment [5] it was 5.66; in experiment [6] it was 5.44. For the same compound, the pIC50 was 6.89 in experiment [7], 5.52 in experiment [8] and less than 4.30 in experiment [9].

For `COC(=O)N1C[C@@H](NC(=O)c2ccc(O)cc2)[C@H](OC(=O)c2cc(O)c(C(=O)c3c(O)cccc3C(=O)O)c(O)c2)C1`, the pIC50 in experiment [1] was 6.09; in [2], 7.00; in experiment [3] it was 6.27; in [4], 5.57; in experiment [5] it was 6.27; in experiment [6], 5.32. The pIC50 in [7] is 7.05; in experiment [8], 4.89; in [9], less than 3.82.
